From PubChem BioAssay AID2060501 (Molecular Pharmacology Branch, DTP, NCI, 2025)

Test system: 282377-053-R-J1-PDC complex spheroids, viability
Assay: Anticancer human tumor 282377-053-R-J1-PDC patient-derived colon adenocarcinoma cell line growth inhibition [GQUAD]
Details: for IC50: curve of first compound; for viability, T/C: stronger effect = lower value
In short: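 Viability of tumor cells grown as complex spheroids with endothelial and stromal cells, exposed to drug combinations. Top concentration at or near clinical Cmax (else 10 microM), diluted in half-log increments.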

[1] = second compound 0.0316 µM, first compound 0.0316 µM
[2] = second compound 0.0316 µM, first compound 0.1 µM
[3] = second compound 0.0316 µM, first compound 0.316 µM
[4] = second compound 0.0316 µM, first compound 1 µM
[5] = second compound 0.0316 µM, first compound 3.16 µM
[6] = second compound 0.0316 µM, first compound 10 µM
[7] = second compound 0.1 µM, first compound 0.0316 µM
[8] = second compound 0.1 µM, first compound 0.1 µM
[9] = second compound 0.1 µM, first compound 0.316 µM
[10] = second compound 0.1 µM, first compound 1 µM
[11] = second compound 0.1 µM, first compound 3.16 µM
[12] = second compound 0.1 µM, first compound 10 µM
[13] = second compound 0.316 µM, first compound 0.0316 µM
[14] = second compound 0.316 µM, first compound 0.1 µM
[15] = second compound 0.316 µM, first compound 0.316 µM
[16] = second compound 0.316 µM, first compound 1 µM
[17] = second compound 0.316 µM, first compound 3.16 µM
[18] = second compound 0.316 µM, first compound 10 µM
[19] = second compound 1 µM, first compound 0.0316 µM
[20] = second compound 1 µM, first compound 0.1 µM
[21] = second compound 1 µM, first compound 0.316 µM
[22] = second compound 1 µM, first compound 1 µM
[23] = second compound 1 µM, first compound 3.16 µM
[24] = second compound 1 µM, first compound 10 µM
[25] = second compound 3.16 µM, first compound 0.0316 µM
[26] = second compound 3.16 µM, first compound 0.1 µM
[27] = second compound 3.16 µM, first compound 0.316 µM
[28] = second compound 3.16 µM, first compound 1 µM
[29] = second compound 3.16 µM, first compound 3.16 µM
[30] = second compound 3.16 µM, first compound 10 µM
[31] = second compound 10 µM, first compound 0.0316 µM
[32] = second compound 10 µM, first compound 0.1 µM
[33] = second compound 10 µM, first compound 0.316 µM
[34] = second compound 10 µM, first compound 1 µM
[35] = second compound 10 µM, first compound 3.16 µM
[36] = second compound 10 µM, first compound 10 µM
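Note: spheroids exposed to compounds for 7 days before readout.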
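Throughout, for viability, T/C: percent of vehicle DMSO control viability with 100% = untreated-like growth.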

Compound: C#Cc1c(F)ccc2cc(O)cc(-c3ncc4c(N5CC6CCC(C5)N6)nc(OCC56CCCN5CC(F)C6)nc4c3F)c12 (centres undefined) + CN(C)c1ccc(Nc2c3ccc(NC(=O)CCN4CCCC4)cc3nc3cc(NC(=O)CCN4CCCC4)ccc23)cc1
- IC50 (second compound 0.0316 µM): > 10 µM
- IC50 (second compound 0.1 µM): > 10 µM
- IC50 (second compound 0.316 µM): > 10 µM
- IC50 (second compound 1 µM): > 10 µM
- IC50 (second compound 3.16 µM): > 10 µM
- IC50 (second compound 10 µM): > 10 µM
- viability, T/C [1]: 98%
- viability, T/C [2]: 108%
- viability, T/C [3]: 89.1%
- viability, T/C [4]: 98.2%
- viability, T/C [5]: 84.2%
- viability, T/C [6]: 82.4%
- viability, T/C [7]: 103%
- viability, T/C [8]: 97.1%
- viability, T/C [9]: 79.2%
- viability, T/C [10]: 74.5%
- viability, T/C [11]: 88.7%
- viability, T/C [12]: 67.6%
- viability, T/C [13]: 93.7%
- viability, T/C [14]: 87.7%
- viability, T/C [15]: 87.4%
- viability, T/C [16]: 79.9%
- viability, T/C [17]: 73.1%
- viability, T/C [18]: 74%
- viability, T/C [19]: 87.5%
- viability, T/C [20]: 78.1%
- viability, T/C [21]: 70.7%
- viability, T/C [22]: 89.9%
- viability, T/C [23]: 91.2%
- viability, T/C [24]: 78.4%
- viability, T/C [25]: 78.9%
- viability, T/C [26]: 75.2%
- viability, T/C [27]: 86.6%
- viability, T/C [28]: 77.3%
- viability, T/C [29]: 91.7%
- viability, T/C [30]: 88.7%
- viability, T/C [31]: 83.1%
- viability, T/C [32]: 81.8%
- viability, T/C [33]: 91.8%
- viability, T/C [34]: 73.5%
- viability, T/C [35]: 90.8%
- viability, T/C [36]: 87.6%

Compound: CC(=O)O[C@H]1C(=O)[C@@]2(C)[C@H]([C@H](OC(=O)c3ccccc3)[C@]3(O)C[C@H](OC(=O)[C@H](O)[C@@H](NC(=O)c4ccccc4)c4ccccc4)C(C)=C1C3(C)C)[C@]1(OC(C)=O)CO[C@@H]1C[C@@H]2O + CN(C)c1ccc(Nc2c3ccc(NC(=O)CCN4CCCC4)cc3nc3cc(NC(=O)CCN4CCCC4)ccc23)cc1
- IC50 (second compound 0.0316 µM): 0.042 µM
- IC50 (second compound 0.1 µM): 0.0447 µM
- IC50 (second compound 0.316 µM): 0.0488 µM
- IC50 (second compound 1 µM): 0.0347 µM
- IC50 (second compound 3.16 µM): 0.0391 µM
- IC50 (second compound 10 µM): < 0.0316 µM
- viability, T/C [1]: 59.7%
- viability, T/C [2]: 14.9%
- viability, T/C [3]: 18.9%
- viability, T/C [4]: 18.1%
- viability, T/C [5]: 22%
- viability, T/C [6]: 25.2%
- viability, T/C [7]: 63.1%
- viability, T/C [8]: 15.6%
- viability, T/C [9]: 17.4%
- viability, T/C [10]: 17.6%
- viability, T/C [11]: 21.3%
- viability, T/C [12]: 25.8%
- viability, T/C [13]: 68%
- viability, T/C [14]: 17.1%
- viability, T/C [15]: 18.5%
- viability, T/C [16]: 18.1%
- viability, T/C [17]: 19.1%
- viability, T/C [18]: 28.9%
- viability, T/C [19]: 52.5%
- viability, T/C [20]: 15.7%
- viability, T/C [21]: 18.1%
- viability, T/C [22]: 17.4%
- viability, T/C [23]: 26.8%
- viability, T/C [24]: 25%
- viability, T/C [25]: 56.7%
- viability, T/C [26]: 18.4%
- viability, T/C [27]: 16.8%
- viability, T/C [28]: 17.2%
- viability, T/C [29]: 19.2%
- viability, T/C [30]: 24.7%
- viability, T/C [31]: 47.2%
- viability, T/C [32]: 14.8%
- viability, T/C [33]: 14.5%
- viability, T/C [34]: 18.8%
- viability, T/C [35]: 22.8%
- viability, T/C [36]: 28.4%
